In patent US20240118281A1, “ANTICANCER COMPOUNDS AND USES THEREOF” (University of Florida Research Foundation, Incorporated, priority 2021, published 2024):

Columns and labels:
Assay type in all cases: cell-based
[1] = test system: EGFR; experiment: Disulfide bond-mediated oligomerization, non-reducing immunoblot; conditions: MDA-MB-468 cells, 24 h, FIG. 1E right
From the text: (§1) The BT20, BT474, BT549, MCF7, MDA-MB-231, MDA-MB-436, MDA-MB-468, HCC1143, HCC1500, HCC1569, HCC1937, HCC1954, Hs578t, and T47D cells lines were purchased from American Type Culture Collection (ATCC) (Manassas, VA). The HCI-001 cell line was derived from an ER-/PR-/HER2- patient-derived xenograft originally isolated from a patient as described previously (DeRose Y S, et al. Nat Med 2011; 17: 1514-1520). The HCI-001/LVM2 model was derived from the HCI-001 cell line by performing two rounds of selection for liver metastasis, as described previously (Wang M, et al. Cell Death Discovery 2019; 5: 153). Cell lines were grown in Dulbecco's Modified Eagle's Medium (GE Healthcare Life Sciences, Logan, UT) containing 10% fetal bovine serum (10% FBS—DMEM) in a humidified incubator with 5% CO2 at 37° C. Cell lysates were prepared as described previously (Law B K, et al. Mol Cell Biol. 2002; 22: 8184-8198). Immunoblot analysis was performed utilizing the following antibodies purchased from Cell Signaling Technology (Beverly, MA) [Akt, #4691; P-Akt[T308], #13038; ATF4, #11815; CHOP, #2895; Cleaved Caspase 8, #9496; DR4, #42533; DR5, #8074; EGFR, #4267; GRP78, #3177; HER3, #4754; PARP, #9532; PDIA1, #3501; XBP1s, #12782], from Santa Cruz Biotechnology (Santa Cruz, CA) [Actin, sc-47778; AGR2/3, sc-376653; AGR3, sc-390940; ERO1-a, sc-100805; and ERp44, sc-393687], or from Rockland Immunochemicals, Inc. (Limerick, PA), Streptavidin-Alkaline Phosphatase conjugated (SA-AP), S000-05.
(§2) To assess protein disulfide bond-mediated oligomerization, cells were treated with DDAs for 24 h in 10% FBS-DMEM. Cells were subsequently scraped directly into the media and pelleted by centrifugation. Cells were extracted directly into boiling 2×-SDS-Sample Buffer containing 100 mM NEM and boiled for 10 min. Samples were sonicated, followed by centrifugation for 20 min at room temperature. Samples were subsequently analyzed by SDS-PAGE and immunoblot.

[2] = test system: DR4; experiment: as above
From the text: as §1, §2

[3] = test system: MDA-MB-468 cells; experiment: Thymidine incorporation (DNA synthesis) assay; conditions: 24 h, FIG. 9A
Experimental: Thymidine incorporation assays were performed as described previously (Corsino P, et al. J Biol Chem 2009; 284: 29945-29955).

## CO[C@H]1C[C@@H]2CS(=O)(=O)SC[C@H]2C[C@@H]1OC [dMtcyDTDO, dimethoxy-tcyDTDO]
[1]
  Concentration at which disulfide-mediated oligomerization of EGFR was detected: 625 nM
[2]; 0, 1.25, 2.5, 5 uM, FIG. 1F
  Levels and oligomerization of DR4, densitometry: increases DR4 oligomerization without affecting overall DR4 levels
[2]; MDA-MB-468 cells, 24 h, FIG. 1E right
  Concentration at which disulfide-mediated oligomerization of DR4 was detected: 625 nM
[2]; MDA-MB-468 cells, 24 h, compared with tcyDTDO, FIG. 1E left
  DR4/5 oligomerization at the same concentration (DR4): more DR4/5 oligomerization
[3]
  Potency in DNA synthesis assay relative to tcyDTDO: two-fold greater potency than tcyDTDO
